pIC50: −log10 of the molar value. “And” between values parts separate entries of the source, which are not always exact repeats. Equal values may be shown once.
Assay: Agonistic activity of the compound against C-C chemokine receptor type 3 by displacing Eotaxin radioligand,using Esonophil chemotaxis assay

COC(=O)[C@H](Cc1ccc([N+](=O)[O-])cc1)NC(=O)c1cccc2ccccc12 [(S)-2-[(Naphthalene-1-carbonyl)-amino]-3-(4-nitro-phenyl)-propionic acid methyl ester]
pIC50: 7.49 and 7.60

Reference: BindingDB's records for doi:10.1016/s0960-894x(01)00248-7 (Smithkline Beecham Pharmaceuticals, 2001)
